Assay results published in US7807845B2, “Resistance-repellent retroviral protease inhibitors” (priority 2004, dated 2010).

Key:
wild type HIV PR = biological target: T1, wild type HIV PR (Human immunodeficiency virus type 1 group M subtype B, UniProt P04585); experiment: HIV PR inhibition assay, wild type; type: biochemical
T1 construct: Recombinant wild type and mutant HIV PRs were expressed using pET21 vector (Novagen) in E. coli cells; made in house
Experimental: (§1) Expression and purification of WT and mutant HIV PR. Recombinant wild type and mutant HIV PRs were expressed using pET21 vector (Novagen) in E. coli cells, and purified and refolded as described previously (Gulnik et al, 1995). The cells were resuspended in 50 mM tris-HCl buffer, pH 8.0, 25 mM NaCl, 0.2% β-mercaptoethanol (buffer A), sonicated and centrifuged. Inclusion bodies were washed first with buffer A, then with buffer A containing respectively 0.1% Triton X-100, 1 M NaCl, 1 M urea, and finally with buffer A alone. Purified inclusion bodies were solubilized by addition of buffer A containing 8 M urea at room temperature. The solution was clarified by centrifugation and loaded onto 2.6×9.5 cm Q-Sepharose column. Flow-through fractions were collected and dialyzed against 3 changes of refolding buffer, which consists of 25 mM Na-phosphate, pH 7.0, 25 mM NaCl, 0.2% β-mercaptoethanol and 10% glycerol, aliquoted and stored at −80° C.
(§2) Inhibition constants were determined using the fluorogenic substrate ArgGlu(EDANS)[…]DABCYL)Arg (Amichem, USA). HIV Protease was preincubated for 0.5-1 min at ambient temperature on a 96 well plate with different concentrations of inhibitor in 0.05 M sodium phosphate buffer, pH 6.5, containing 20 mM NaCl, 2 mM DTT and 0.01% Tween-20. The reaction was initiated by the addition of substrate. Final enzyme concentration was 2-5 nM for WT and 2-30 nM for mutants. Substrate concentration was 20 uM and DMSO concentration 2%. The increase in fluorescence intensity at the emission maximum of 520 nm (excitation wavelength 340 nm, cut-off filter 495 nm) was monitored as a function of time using a Spectramax Gemini fluorescence plate reader (Molecular Devices, CA USA). The initial rate of hydrolysis was calculated by first-degree polynomial fit using SoftMAX operating software. Data were fitted to the Michaelis-Menten equation for competitive inhibitors. For tight-binding inhibitors the data were fitted by nonlinear regression analysis to the equation V=V0/2Et({[Ki(1+S/Km)+It−Et]^2+4Ki(1+S/Km)Et}^1/2−[Ki(1+S/Km)+It−Et]) (Williams and Morrison, 1979) with the program GraFit, version 5 (Erithacus Software Limited, UK), where V and V0 are initial velocities with and without inhibitor, Km is the Michaelis-Menten constant and S, Et and It are the concentrations of substrate, active enzyme and inhibitor respectively.

mutant HIV PR (Mutant 9) = mutant HIV PR (Mutant 9) (Human immunodeficiency virus type 1 group M subtype B, UniProt P04585); experiment: HIV PR inhibition assay, Mutant 9; type: biochemical; settings: read-out: Ki Mutant 9; recombinant mutant HIV PR, fluorogenic substrate, pH 6.5
Experimental: as §1, §2

mutant HIV PR (Mutant 8) = mutant HIV PR (Mutant 8) (Human immunodeficiency virus type 1 group M subtype B, UniProt P04585); experiment: HIV PR inhibition assay, Mutant 8; type: biochemical; settings: read-out: Ki Mutant 8; recombinant mutant HIV PR, fluorogenic substrate, pH 6.5
Experimental: as §1, §2

[1] = biological target: mutant HIV PR (Mutant 10) (Human immunodeficiency virus type 1 group M subtype B, UniProt P04585); experiment: HIV PR inhibition assay, Mutant 10; type: biochemical; settings: read-out: Ki Mutant 10; recombinant mutant HIV PR, fluorogenic substrate, pH 6.5
Experimental: as §1, §2

WT=HIVHXB2 = experiment: Antiviral assay in MT-4 cells (MTT), WT virus; type: cell-based, HIV; settings: Human immunodeficiency virus 1, MT4, 120 h, HIVHXB2, 5 days
Experimental: (§3) MT-4 cells were obtained from the AIDS Research and Reference Reagent Program (ARRRP, Division of AIDS, NIAID, NIH: MT-4 from Dr. D. Richman). Cells were propagated in RPMI 1640 supplemented with 10% fetal bovine serum, 50U of penicillin and 50 μg of streptomycin per ml (Invitrogen, Carlsbad Calif.). The following HIV viruses were used for testing of antiviral potency of compounds: WT=HIVHXB2; recombinant HIVHXB2 virus from drug resistant patient isolates; HIVmutant10 (16 mutations); HIVmutant8 (14 mutations); HIVmutant9 (10 mutations).
(§4) The potency of test compound was determined as previously described (ref 1-3) with minor modifications. MT-4 cells (1.5×10^4/ml) were exposed to 200 50 % tissue culture infective doses (TCID50) of viruses in the presence of various concentrations of test compound in 96 well microtiter plates and incubated at 37° C. for 5 days. 3-(4,5-dimethylthiazol-2-yl)-2,5-diphenytetrazolium bromide (MTT) solution was added to a final concentration of 0.75 mg/ml, and plates were incubated 1 hour. After incubation cells were dissolved in isopropanol/Triton-X 100/HCl (1000:50:25) solution. Absorbance was monitored in a microplate reader (Spectramax, Molecular Devices) at 540 nm and 690 nm. Cytotoxicity of compounds was tested in a similar assay in the absence of virus.

[2] = tested on: HIVmutant9 (10 mutations); experiment: Antiviral assay in MT-4 cells (MTT), mutant 9 virus; type: cell-based, HIV; settings: Human immunodeficiency virus 1, MT4, 120 h, read-out: IC50 Mutant 9
Experimental: as §3, §4

[3] = tested on: HIVmutant10 (16 mutations); experiment: Antiviral assay in MT-4 cells (MTT), mutant 10 virus; type: cell-based, HIV; settings: Human immunodeficiency virus 1, MT4, 120 h, read-out: IC50 Mutant 10
Experimental: as §3, §4

[4] = tested on: HIVmutant8 (14 mutations); experiment: Antiviral assay in MT-4 cells (MTT), mutant 8 virus; type: cell-based, HIV; settings: Human immunodeficiency virus 1, MT4, 120 h, read-out: IC50 Mutant 8
Experimental: as §3, §4

SMILES	Ki (wild type HIV PR) [nM]	Ki (mutant HIV PR (Mutant 9)) [nM]	Ki (mutant HIV PR (Mutant 8)) [nM]	Ki [1] [nM]	IC50 (WT=HIVHXB2) [nM]	IC50 [2] [nM]	IC50 [3] [nM]	IC50 [4] [nM]
CCCCNC=C1C(=O)Nc2ccc(S(=O)(=O)N(CC(C)C)CC(O)C(Cc3ccccc3)NC(=O)OC3COC4OCCC34)cc21 (centres unmarked) [Compound 57, {1-Benzyl-3-[(3-butylaminomethylene-2-oxo-2,3-dihydro-1H-indole-5-sulfonyl)-isobutyl-amino]-2-hydroxy-propyl}-carbamic acid hexahydro-furo[2,3-b]furan-3-yl ester]	< 0.1	0.19	< 0.3	< 1	13	11	40	25
CC(C)CN(CC(O)C(Cc1ccccc1)NC(=O)OC1COC2OCCC12)S(=O)(=O)c1ccc2c(c1)C(=CNCC1CCCCC1)C(=O)N2 (centres unmarked) [Compound 72, [1-Benzyl-3-({3-[(cyclohexylmethyl-amino)-methylene]-2-oxo-2,3-dihydro-1H-indole-5-sulfonyl}-isobutyl-amino)-2-hydroxy-propyl]-carbamic acid hexahydro-furo[2,3-b]furan-3-yl ester]	< 0.1	< 0.1	< 0.3	< 1	9.7	9	40	27
CCCC(C)NC=C1C(=O)Nc2ccc(S(=O)(=O)N(CC(C)C)CC(O)C(Cc3ccccc3)NC(=O)OC3COC4OCCC34)cc21 (centres unmarked) [Compound 108]	< 0.1	< 0.1	< 0.3	< 1	9	15	80	35
CCCN(C=C1C(=O)Nc2ccc(S(=O)(=O)N(CC(C)C)CC(O)C(Cc3ccccc3)NC(=O)OC3COC4OCCC34)cc21)CC (centres unmarked) [Compound 106]	< 0.1	< 0.1	< 0.3	< 1	21	20	60	30
C=CCN(C=C1C(=O)Nc2ccc(S(=O)(=O)N(CC(C)C)CC(O)C(Cc3ccccc3)NC(=O)OC3COC4OCCC34)cc21)C1CCCC1 (centres unmarked) [Compound 116]	< 0.1	< 0.1	< 0.3	< 1	15	20	150	50
CC(C)CN(CC(O)C(Cc1ccccc1)NC(=O)OC1COC2OCCC12)S(=O)(=O)c1ccc2c(c1)C(=CNC1CCC1)C(=O)N2 (centres unmarked) [Compound 114]	< 0.1	0.15	< 0.3	1.2	17	31	115	30
CC(C)CN(CC(O)C(Cc1ccccc1)NC(=O)OC1COC2OCCC12)S(=O)(=O)c1ccc2c(c1)C(=CNCC1CC1)C(=O)N2 (centres unmarked) [Compound 101]	0.11	0.19	< 0.3	< 1	20	22	55	31
CC(C)CN(C=C1C(=O)Nc2ccc(S(=O)(=O)N(CC(C)C)CC(O)C(Cc3ccccc3)NC(=O)OC3COC4OCCC34)cc21)CC(C)C (centres unmarked) [Compound 113]	< 0.1	0.21	< 0.3	2.9	8	23	90	34
CC(C)CN(CC(O)C(Cc1ccccc1)NC(=O)OC1COC2OCCC12)S(=O)(=O)c1ccc2c(c1)C(=CNCCCCc1ccccc1)C(=O)N2 (centres unmarked) [Compound 78, [1-Benzyl-2-hydroxy-3-(isobutyl-{2-oxo-3-[(4-phenyl-butylamino)-methylene]-2,3-dihydro-1H-indole-5-sulfonyl}-amino)-propyl]-carbamic acid hexahydro-furo[2,3-b]furan-3-yl ester]	< 0.1	< 0.1	< 0.3	< 1	11	17	105	55
CC(C)CN(CC(O)C(Cc1ccccc1)NC(=O)OC1COC2OCCC12)S(=O)(=O)c1ccc2c(c1)C(=CNCCc1ccccn1)C(=O)N2 (centres unmarked) [Compound 76, [1-Benzyl-2-hydroxy-3-(isobutyl-{2-oxo-3-[(2-pyridin-2-yl-ethylamino)-methylene]-2,3-dihydro-1H-indole-5-sulfonyl}-amino)-propyl]-carbamic acid hexahydro-furo[2,3-b]furan-3-yl ester]	< 0.1	< 0.1	< 0.3	< 1	33	35	28	61
CCNC(C)=C1C(=O)Nc2ccc(S(=O)(=O)N(CC(C)C)CC(O)C(Cc3ccccc3)NC(=O)OC3COC4OCCC34)cc21 (centres unmarked) [Compound 43, (1-Benzyl-3-{[3-(1-ethylamino-ethylidene)-2-oxo-2,3-dihydro-1H-indole-5-sulfonyl]-isobutyl-amino}-2-hydroxy-propyl)-carbamic acid hexahydro-furo[2,3-b]furan-3-yl ester]	< 0.1	< 0.1	< 0.3	< 1	7	9	65	23
CNC(C)=C1C(=O)Nc2ccc(S(=O)(=O)N(CC(C)C)CC(O)C(Cc3ccccc3)NC(=O)OC3COC4OCCC34)cc21 (centres unmarked) [Compound 41, (1-Benzyl-2-hydroxy-3-{isobutyl-[3-(1-methylamino-ethylidene)-2-oxo-2,3-dihydro-1H-indole-5-sulfonyl]-amino}-propyl)-carbamic acid hexahydro-furo[2,3-b]furan-3-yl ester]	< 0.1	< 0.1	< 0.3	< 1	10	17	56	29
CC(C)CN(CC(O)C(Cc1ccccc1)NC(=O)OC1COC2OCCC12)S(=O)(=O)c1ccc2c(c1)C(=CNC1CCCCC1)C(=O)N2 (centres unmarked) [Compound 107]	< 0.1	0.21	< 0.3	1.2	13	28	110	39
